Laboratory results as given in PMC12566191, “Isolation and In Vitro Activity of Sesquiterpene Lactones from Eremanthus crotonoides as SARS-CoV-2 Protease Inhibitors and Cytotoxic Agents” (Molecules, 2025).
Several values for one entry are separate records, joined by “and”; a condition that tells them apart may be missing. Equal values may be shown once. Entries after “also recorded” stand apart in the source; their conditions may differ. Read-outs that look alike come from different tables or passages of the source.

What was measured:
[1] = Cell viability, crystal violet (CV) assay, PC-3; format: cell-based; details: human
Protocol: (§1) The cytotoxicity of crude extract and isolated compounds were evaluated against the human tumor cell lines PC-3 (prostatic carcinoma cell) and HCT-116 (colorectal carcinoma cell). Cell maintenance was performed as described in the literature. The extract and isolated compounds were tested at the concentrations of 0.05 and 50 μg/mL and 0.01 and 10 μM, respectively. Saponin digitonin (100 µM), a very potent permeabilizer of cell membranes, was used as positive control to induce 0% cell viability after 48 h of treatment.
(§2) Cell viability was determined by MTT and crystal violet (CV) assays after 48 h of incubation. Absorbance was measured using an automated microplate reader at 540 nm with a reference wavelength of 670 nm. Results are expressed as percentages relative to untreated control cultures.

[2] = Cell viability, MTT assay, HCT-116; format: cell-based, human; details: human
Protocol: as §1, §2

[3] = Cell viability, MTT assay, PC-3; format: cell-based, human; details: human
Protocol: as §1, §2

[4] = Cell viability, crystal violet (CV) assay, HCT-116; format: cell-based; details: human
Protocol: as §1, §2

[5] = target: Recombinant SARS-CoV-2 PLpro (Severe acute respiratory syndrome coronavirus 2, UniProt P0DTD1); assay: FRET enzymatic inhibition assay, PLpro; format: biochemical
[6] = target: Recombinant SARS-CoV-2 3CLpro (Severe acute respiratory syndrome coronavirus 2, UniProt P0DTD1); assay: FRET enzymatic inhibition assay, 3CLpro; format: biochemical; details: for inhibition at 1000 µM: read-out: Maximum inhibition (%) 3CLpro
[7] = system: HCT-116 (colorectal carcinoma cell); assay: Cell viability, MTT assay, HCT-116; format: cell-based, human; details: 10 µM (goyazensolide: ≤ 10 µM), 48 h, MTT and CV assays
Protocol: as §1, §2

[8] = system: PC-3 (prostatic carcinoma cell); assay: Cell viability, MTT assay, PC-3; format: cell-based, human; details: 10 µM (goyazensolide: ≤ 10 µM), 48 h, MTT and CV assays
Protocol: as §1, §2

[9] = system: glioblastoma multiforme; design: method as in doi:10.1590/S0102-695X2012005000131; details: cited from earlier work
[10] = system: S. aureus; design: method as in doi:10.1007/s43450-021-00176-z; details: cited from earlier work
[11] = system: clinical isolate of S. aureus; design: method as in doi:10.1007/s43450-021-00176-z; details: cited from earlier work
[12] = 125 µg/mL (101.7 µM), positive control
[13] = maximum inhibition conc. 1,000 µM (highest concentration tested)
[14] = HCT-116 colorectal carcinoma cells

SMILES: C[C@@H]1CC[C@@]2(OC1)O[C@H]1[C@@H](O)[C@H]3[C@@H]4CC[C@H]5C[C@@H](O[C@@H]6O[C@H](CO)[C@H](O[C@@H]7O[C@H](CO)[C@@H](O)[C@H](O[C@@H]8OC[C@@H](O)[C@H](O)[C@H]8O)[C@H]7O[C@@H]7O[C@H](CO)[C@H](O)[C@H](O[C@@H]8O[C@H](CO)[C@@H](O)[C@H](O)[C@H]8O)[C@H]7O)[C@H](O)[C@H]6O)[C@H](O)C[C@]5(C)[C@H]4CC[C@]3(C)[C@H]1[C@@H]2C [DGTN, digitonin, reference compound]
- viability at 48 h, 101.7 µM [1, 12]: 0%
- viability at 48 h, 101.7 µM [2, 12]: 0%
- viability at 48 h, 101.7 µM [3, 12]: 0%
- viability at 48 h, 101.7 µM [4, 12]: 0%

SMILES: C=C(C)C(=O)OC1CC2(C)OC(=CC2=O)C(CO)=CC2OC(=O)C(=C)C21 (stereo not drawn) [Goyazensolide, goyazensolide]
- inhibition at 1000 µM ([5]; maximum inhibition conc. 1,000 µM (highest concentration tested), read-out: Maximum inhibition (%) PLpro): 80.7 ± 5.9%
- IC50 ([5]; read-out: Apparent IC50 PLpro): 317 µM
- viability at 48 h, 0.01 µM ([1]; PC-3 prostatic carcinoma cells): 89.5 ± 2.8%
- viability at 48 h, 10 µM ([1]; PC-3 prostatic carcinoma cells): 91.4 ± 1.7%
- Maximum inhibition (%) 3CLpro [6, 13]: 96%
- inhibition at 1000 µM [6, 13]: 96.14 ± 0.01%
- IC50 ([6]; read-out: Apparent IC50 3CLpro): 71.1 µM and 71 µM
- Reduction of cell viability, HCT-116 [7]: no noteworthy effects; also recorded: unable to decrease cell viability; also recorded: no such effect
- viability at 48 h, 0.01 µM [2, 14]: 99.6 ± 5.9%
- viability at 48 h, 10 µM [2, 14]: 100 ± 5.8%
- Reduction of cell viability, PC-3 [8]: no noteworthy effects; also recorded: unable to decrease cell viability; also recorded: no such effect
- viability at 48 h, 0.01 µM ([3]; PC-3 prostatic carcinoma cells): 86.6 ± 4.7%
- viability at 48 h, 10 µM ([3]; PC-3 prostatic carcinoma cells): 100 ± 18%
- viability at 48 h, 0.01 µM [4, 14]: 113 ± 4%
- viability at 48 h, 10 µM [4, 14]: 92.1 ± 9%

SMILES: C=C1C(=O)OC2C=C(CO)C3=CC(=O)C(C)(CC(OC(=O)C(C)=CC)C12)O3 (stereo not drawn) [Centratherin, centratherin]
- IC50 ([5]; Apparent IC50 PLpro): 12 µM and 11.9 µM
- Maximum inhibition (%) PLpro [5, 13]: 97%
- inhibition at 1000 µM ([5]; read-out: Maximum inhibition (%) PLpro, maximum inhibition conc. 1,000 µM (highest concentration tested)): 96.77 ± 0.3%
- Cytotoxic activity against glioblastoma multiforme [9]: exhibited cytotoxic activity
- IC50 values against glioblastoma multiforme, compared with doxorubicin [9]: comparable to the commercial anticancer drug doxorubicin
- viability at 48 h, 0.01 µM [1]: 100 ± 3.6%
- viability at 48 h, 10 µM [1]: 0%
- IC50 ([6]; Apparent IC50 3CLpro): 165 µM
- inhibition at 1000 µM [6]: 89.5 ± 0.97%
- viability at 48 h, 0.01 µM [2]: 100 ± 9.6%
- viability at 48 h, 10 µM [2]: 0%
- viability at 48 h, 0.01 µM [3]: 100 ± 13.5%
- viability at 48 h, 10 µM [3]: 0%
- viability at 48 h, 0.01 µM [4]: 114 ± 5.6%
- viability at 48 h, 10 µM [4]: 3.5 ± 9.1%
- Concentration with antibiofilm activity [10]: 128 µg/mL
- Concentration inhibiting clinical isolate of S. aureus [11]: 32 µg/mL
